Format in all cases: functional, tissue-based
The target of one assay is Cannabinoid receptor 1 (Rattus norvegicus, UniProt P20272). Nature of the assay: Potency at CB1 receptor in rat brain by [35S]GTP-gamma-S binding assay. For orientation: Binding of GTPγS marks nucleotide exchange on a G protein.
Assay [1] has as its target Cannabinoid receptor 1 (Rattus norvegicus) (UniProt P20272). Description: Efficacy at CB1 receptor in rat brain by [35S]GTPgammaS binding assay (basal value set at 100%).
For assay [2] the target is unchanged. Description: Potency at CB1 receptor in rat brain by [35S]GTP-gamma-S binding assay at 0.1 mM.
Assay [3] has the same target. Nature of the assay: Efficacy at CB1 receptor in rat brain by [35S]GTP-gamma-S binding assay at 0.1 mM (basal value set at 100%).

Active and inactive are the calls of the source. No cut-off for these calls is given here.

A word on the EC50: it is the concentration at which the effect is half-maximal. A lower EC50 goes with higher potency in that assay. As a reminder, the Emax is the greatest response seen or fitted, relative to the assay's reference.

Sequence of Cannabinoid receptor 1 (Rattus norvegicus) (P20272 whole entry): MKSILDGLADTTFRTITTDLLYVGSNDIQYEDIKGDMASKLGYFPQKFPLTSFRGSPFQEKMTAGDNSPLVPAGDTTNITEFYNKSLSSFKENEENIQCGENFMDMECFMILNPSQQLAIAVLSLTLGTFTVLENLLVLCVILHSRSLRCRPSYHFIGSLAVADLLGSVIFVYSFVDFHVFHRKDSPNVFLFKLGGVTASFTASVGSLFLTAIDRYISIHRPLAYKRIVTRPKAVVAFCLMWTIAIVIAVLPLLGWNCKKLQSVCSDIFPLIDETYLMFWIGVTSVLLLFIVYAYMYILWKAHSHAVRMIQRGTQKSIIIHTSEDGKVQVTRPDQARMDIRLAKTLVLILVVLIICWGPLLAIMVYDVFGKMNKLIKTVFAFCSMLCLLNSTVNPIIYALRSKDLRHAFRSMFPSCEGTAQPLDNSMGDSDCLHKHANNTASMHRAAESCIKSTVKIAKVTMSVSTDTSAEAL
Sequence of Cannabinoid receptor 1 (P20272 whole entry): as above

In turn, `CCCCC/C=C\C/C=C\C/C=C\C/C=C\CC[C@H](C)C(=O)OC(CO)CO` had an EC50 on Cannabinoid receptor 1 of 15.8 µM. For the same compound, in assay [1], the Emax came out at 227%. `CCCCC/C=C\C/C=C\C/C=C\C/C=C\CC[C@@H](C)C(=O)OC(CO)CF` (mixture of isomers) had an EC50 on Cannabinoid receptor 1 of 15.8 µM. Also, in assay [1], the Emax came to 168%. Regarding `CCCCC/C=C\C/C=C\C/C=C\C/C=C\CC[C@@H](C)C(=O)OC(CF)CF`, the “Log EC50” value in assay [2] was “inactive”. Further, in assay [3], the Emax entry is “inactive”. Regarding `CCCCC/C=C\C/C=C\C/C=C\C/C=C\CC[C@@H](C)C(=O)OC(CO)CO`, at Cannabinoid receptor 1, the midpoint of the response, the EC50, lay at 10 µM. The compound further came in with an Emax in assay [1] of 407%. In turn, `CCCCC/C=C\C/C=C\C/C=C\C/C=C\CCCC(=O)OC(CO)CO` showed an Emax in assay [1] of 620%.

For the origin of these results see ChEMBL document CHEMBL1146982, “Alpha-methylated derivatives of 2-arachidonoyl glycerol: synthesis, CB1 receptor activity, and enzymatic stability” (Bioorg Med Chem Lett, 2006).
